# Assay results taken from patent US12528767B2, “HDAC6 inhibitors and uses thereof” (Eikonizo Therapeutics, Inc., priority 2019, dated 2026).
# Read-outs that look alike come from different tables or passages of the source.
# Biological target: T1, Full length Human HDAC6 (Homo sapiens, UniProt Q9UBN7)
# T1 sequence (Q9UBN7 1-1215): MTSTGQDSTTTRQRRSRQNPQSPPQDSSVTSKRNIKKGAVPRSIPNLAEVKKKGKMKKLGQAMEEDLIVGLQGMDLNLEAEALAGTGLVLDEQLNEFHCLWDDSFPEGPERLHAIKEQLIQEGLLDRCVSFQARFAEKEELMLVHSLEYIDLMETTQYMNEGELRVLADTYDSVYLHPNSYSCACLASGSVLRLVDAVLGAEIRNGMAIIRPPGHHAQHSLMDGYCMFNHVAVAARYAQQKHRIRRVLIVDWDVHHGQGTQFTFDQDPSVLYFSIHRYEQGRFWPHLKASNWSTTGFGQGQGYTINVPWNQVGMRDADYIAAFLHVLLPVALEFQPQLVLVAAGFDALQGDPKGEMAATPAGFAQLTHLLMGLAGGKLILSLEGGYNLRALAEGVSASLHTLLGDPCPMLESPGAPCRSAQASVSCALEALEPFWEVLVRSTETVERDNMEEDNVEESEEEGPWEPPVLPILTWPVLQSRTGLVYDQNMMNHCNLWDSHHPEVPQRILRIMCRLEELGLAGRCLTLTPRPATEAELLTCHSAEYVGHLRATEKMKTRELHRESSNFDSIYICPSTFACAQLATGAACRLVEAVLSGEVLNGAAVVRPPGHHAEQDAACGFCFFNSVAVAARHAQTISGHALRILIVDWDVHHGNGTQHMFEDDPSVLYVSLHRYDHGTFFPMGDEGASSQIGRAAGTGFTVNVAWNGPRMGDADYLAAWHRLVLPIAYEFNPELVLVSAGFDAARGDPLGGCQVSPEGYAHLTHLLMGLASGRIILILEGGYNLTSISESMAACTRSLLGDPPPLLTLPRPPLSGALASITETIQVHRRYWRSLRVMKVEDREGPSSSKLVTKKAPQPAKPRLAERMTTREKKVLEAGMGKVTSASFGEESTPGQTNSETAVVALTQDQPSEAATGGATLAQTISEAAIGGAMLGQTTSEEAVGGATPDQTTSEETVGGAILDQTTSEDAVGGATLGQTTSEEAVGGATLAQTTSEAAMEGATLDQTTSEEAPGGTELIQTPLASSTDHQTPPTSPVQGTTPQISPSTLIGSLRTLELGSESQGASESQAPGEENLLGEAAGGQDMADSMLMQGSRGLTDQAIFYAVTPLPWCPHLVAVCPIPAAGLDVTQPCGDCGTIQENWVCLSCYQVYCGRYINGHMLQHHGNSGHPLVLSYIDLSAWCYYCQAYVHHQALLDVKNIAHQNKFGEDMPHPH
# Settings: ratio of HDAC8 IC50/HDAC6 IC50
SMILES,"Selectivity (6 v 8) (fold) (Table 1, number)","Selectivity (6 v 8) (fold) (Table 1, range class)"
"CC[C@@H](c1ccccc1)N1CCc2cc(C(=O)NO)cc(F)c2C1 (single isomer, unassigned) [compound 31]",468.8,IV (IV: >100-1000)
"O=C(NO)c1ccc2c(c1)CCN1CCC[C@H]21 (single isomer, unassigned) [compound 148]",1.9,II (II: >1-10)
"O=C(NO)c1ccc2c(c1)CN1CCCC[C@H]1C2 (single isomer, unassigned) [compound 144]",26.7,III (III: >10-100)
"O=C(NO)c1ccc2c(c1)CCN1CCC[C@@H]21 (single isomer, unassigned) [compound 149]",6.5,II (II: >1-10)
"O=C(NO)c1cc(F)c2c(c1)C[C@H]1COCCN1C2 (single isomer, unassigned) [compound 130]",>2.8,V (V: >1000)
"O=C(NO)c1ccc2c(c1)CN1CCCC[C@@H]1C2 (single isomer, unassigned) [compound 143]",88.8,III (III: >10-100)
"CN1Cc2cc(C(=O)NO)ccc2[C@@H]2CCCN21 (single isomer, unassigned) [compound 160]",1.8,II (II: >1-10)
"O=C(NO)c1ccc2c(c1)C[C@H]1CCCN1C2 (single isomer, unassigned) [compound 122]",14.5,III (III: >10-100)
"O=C(NO)c1ccc2c(c1)CN1CCC[C@H]21 (single isomer, unassigned) [compound 164]",2.3,II (II: >1-10)
"O=C(NO)c1cc(F)c2c(c1)C[C@@H]1CCC3(CCCCC3)CN1C2 (single isomer, unassigned) [compound 137]",126.4,IV (IV: >100-1000)
"CC[C@H]1CCCN1Cc1ccc(C(=O)NO)cc1F (single isomer, unassigned) [compound 49]",15.4,III (III: >10-100)
"O=C(NO)c1cc(F)c2c(c1)C[C@@H]1COCCN1C2 (single isomer, unassigned) [compound 129]",>2.9,V (V: >1000)
"CC1(C)C[C@@H]2Cc3cc(C(=O)NO)cc(F)c3CN2C1 (single isomer, unassigned) [compound 126]",37.4,III (III: >10-100)
"CC[C@@H]1CCCN1Cc1ccc(C(=O)NO)cc1F (single isomer, unassigned) [compound 48]",15.6,III (III: >10-100)
"CC[C@H](c1ccccc1)N1CCc2cc(C(=O)NO)cc(F)c2C1 (single isomer, unassigned) [compound 30]",262.4,IV (IV: >100-1000)
"CN1Cc2cc(C(=O)NO)ccc2[C@H]2CCCN21 (single isomer, unassigned) [compound 161]",2,II (II: >1-10)
"O=C(NO)c1ccc2c(c1)CCN1CCCC[C@@H]21 (single isomer, unassigned) [compound 89]",3.1,II (II: >1-10)
"O=C(NO)c1ccc2c(c1)CCN1CCCC[C@H]21 (single isomer, unassigned) [compound 90]",3.6,II (II: >1-10)
